As a reminder, the IC50 is the point on the concentration scale where inhibition reaches its midpoint. The low end stands for greater potency in that assay, the high end for weaker potency in that assay.

The subject of data set [1] is TGFβ-ALK5-SMAD2/3 signaling pathway in Luc-Smad2/3-NIH3T3 cells. The data set is described as follows: In vitro cell luciferase assay in Luc-Smad2/3-NIH3T3 cells stimulated with TGFβ1. In kind it is cell-based. Particulars: Mus musculus; TGFβ1 4 ng/mL, 2% FBS medium, luciferase chemiluminescence. As for the experimental part: Test compounds: For the compounds of the present disclosure prepared in the above examples, each compound was prepared into 4 mM using DMSO. Then, a 4-fold serial dilution was made to obtain 20000.00 nM, 5000.00 nM, 1250.00 nM, 312.5 nM, 78.125 nM, 19.53 nM, 4.88 nM and 1.22 nM successively.
Luc-Smad2/3-NIH3T3 mouse fibroblasts (engineered to overexpress SMAD2,3-responsive promoter) were provided by a laboratory of China Pharmaceutical University.
Reagents: DMEM, purchased from Invitrogen, US; FBS, purchased from Invitrogen, US; DMSO, purchased from Sigma, US; Glo Lysis Buffer, purchased from Progema, US; Bright-Glo Luciferase assay system, purchased from Promega, US; and TGFβ, purchased from PeproTech, US.
Instruments: MD SpectraMaX M3 multifunctional enzyme reader, purchased from Molecular Devices, US.
Cell recovery: The cells were dissolved by placing in a […] water bath, then transferred to a 15 mL of pre-warmed culture medium, and centrifuged at 1000 rpm for 5 minutes. After the culture medium was discarded, the cells were resuspend in 15 mL of fresh culture medium, transferred to a 10 cm dish, and placed in an incubator at 37° C. with 5% CO2 for culture. After 24 hours, the culture medium for the cells was changed with a fresh culture medium.
Cell passage: The recovered cells were transferred to a 50 mL sterile centrifuge tube and centrifuged at 1000 rpm for 5 minutes. The culture medium was discarded. The evenly dispersed cells was counted, and adjusted to an appropriate cell concentration of 15 mL of fresh culture medium, added to a 10 cm dish, and placed in an incubator at 37° C. with 5% CO2 for culture.
Luc-Smad2/3-NIH3T3 cells were cultured normally in a 10 cm culture dish until the confluence reached 80%-90%. After digestion, they were collected in a 15 mL centrifuge tube, centrifuged at 1000×g for 5 minutes to remove the supernatant, and resuspended with 1 mL of medium, then diluted 10 times and counted. The cells was diluted according to the results from the count, and transferred into a 96-well plate at 4×10^3/cells per well (100 μl of resuspended cells was added in each well).
1-2 mg of the drug was weighed (weighed in advance), and prepared into a 4 mM stock solution using DMSO. After 24 hours, the culture medium was removed. The drug was diluted with 2% FBS culture medium. 100 μl of the 1× drug solution was added to make the final concentration of the drug to be 20000.00 nM, 5000.00 nM, 1250.00 nM, 312.5 nM, 78.125 nM, 19.53 nM, 4.88 nM, and 1.22 nM. TGFβ1 was present in each well at a final concentration of 4 ng/mL, and diluted with 2% FBS culture medium together with the compounds.
The Glo Lysis Buffer and the Bright-glo luciferase assay system as well as the cells were equilibrated to room temperature. After the cell supernatant was removed, the cells were dissolved evenly by adding 100 μl of the Glo Lysis Buffer to each well with shaking slowly, and lysed at room temperature for 5 minutes. After that, to each well, 100 μl of the Bright-glo luciferase assay system was added to incubate the cells for 5 minute at room temperature with shaking for 2 minutes. Then, 180 μl of the supernatant was transferred to a white bottom 96-well plate to detect chemiluminescence signal. The detection condition was 1 s.
2.3 Data processing: Graphpad Prism 5 software was used to perform nonlinear curve fitting and data analysis to obtain IC50 by fitting.

The target in data set [2] is T1, ALK5 (Homo sapiens, UniProt P36897).
T1 construct: purchased Carna 09-141
T1 sequence (P36897 162-503 limits assumed): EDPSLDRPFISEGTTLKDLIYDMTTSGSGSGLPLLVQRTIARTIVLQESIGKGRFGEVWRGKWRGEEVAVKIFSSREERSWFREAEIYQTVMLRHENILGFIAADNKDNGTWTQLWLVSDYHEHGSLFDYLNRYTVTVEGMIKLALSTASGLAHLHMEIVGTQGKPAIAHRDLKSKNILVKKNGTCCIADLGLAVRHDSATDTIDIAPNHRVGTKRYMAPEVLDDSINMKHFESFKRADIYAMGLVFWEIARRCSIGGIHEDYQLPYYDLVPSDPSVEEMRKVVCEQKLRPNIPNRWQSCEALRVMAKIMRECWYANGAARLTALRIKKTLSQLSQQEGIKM
Kind of data set: In vitro activity against ALK5 kinase (ADP-Glo Kinase Assay). Conditions: 28° C. 120 minutes. The class given is biochemical. As for the experimental part: For the compounds of the present disclosure prepared in the above examples, each compound was prepared into 10 mM with DMSO, and then diluted to 3.333 μM, 1.111 μM, 370 nM, 123 nM, 41 nM, 14 nM, 4.6 nM, 1.5 nM and 0.5 nM successively.
Reagents: ALK5, Cat. No. 09-141, purchased from Carna; p38α, Cat. No. 04-152, purchased from the Carna; TGFβR1 peptides, Cat. No. T36-58, purchased from SignalChem; dimethyl sulfoxide (DMSO), purchased from Sigma, US; EDTA, purchased from Sigma, US; and ADP-Glo Kinase Assay, Cat. No. v9102/3, 1×Kinase buffer (40 mM Tris, pH7.5, 0.10% BSA, 20 mM MgCl2, 1 mM DTT), purchased from Promega, and prepared immediately before use.
2.2.1.1 Preparation of 50-fold compounds: The compounds were prepared into 500 μM, 50-fold concentration as the final concentration 10 μM for detecting the compounds, which was performed as following: into a second well of a 96-well plate, 95 μl of 100% DMSO was added, and then 5 μl of the 10 mM compound solution was added, to prepare a […] compound solution; into other wells, 60 μl of 100% DMSO was added; from the second well, 30 μl of the compound was drawn out and added into a third well; such 3-fold serial dilution was continued successively until 10 dilutions of concentration were made.
The kinase was added to a 1× kinase buffer, to form a 2× enzyme solution. 2.5 μl of the 2× enzyme solution was added to a 384-well reaction plate which already contained 100 nl of 100% DMSO-dissolved compound, to incubate at room temperature for 10 minutes.
FAM labeled peptides and ATP were added to the 1× kinase buffer, to form a 2× substrate solution. 2.5 μl of the 2× substrate solution was added to the 384-well reaction plate.
The 384-well plate was incubated at 28° C. for 120 minutes.
2.5.1 An ADP-Glo reagent was equilibrated to room temperature.
2.5.2 5 μl of the reaction solution was transferred into a reaction well at another new 384-well plate.
2.5.3 5 μl of the ADP-Glo reagent was transferred into the reaction well at the 384-well plate to stop the reaction.
2.5.4 An incubation was performed at 28° C. for 120 minutes.
2.5.5 10 μl of a kinase detection reagent was transferred into each reaction well, shaken for 1 minute, and was allowed to stand for 30 minutes at room temperature.
The luminescence value of the sample was read from Envision.
2.7.1 Luminescence reading data were copied from the Envision program.
2.7.2 The values of the luminescence reading were converted into the percent inhibition by the following formula.
Percent inhibition=(max−sample RLU)/(max−min)×100, where “min” stands for the fluorescence reading of the control sample with no enzyme added to the reaction; and “max” stands for the fluorescence reading of the sample with DMSO added as a control.
2.7.3 The date were imported into MS Excel and subjected to curve fitting using XLFit excel add-in version 5.4.0.8 and a fitting formula: Y=Bottom+(Top−Bottom)/(1+(IC50/X)^HillSlope).
For orientation: In ADP-Glo the light output rises with the ADP produced.

The conditions of data set [3]: animal models; cited from earlier work.

For `CC1(O)CCN(c2ccc3c(Oc4cn(C5CC5)nc4C4CCOCC4)ccnc3c2)CC1` [Example 5, 1-(4-((1-cyclopropyl-3-(tetrahydro-2H-pyran-4-yl)-1H-pyrazol-4-yl)oxy)quinolin-7-yl)-4-methyl piperidin-4-ol], the values for the IC50 in data set [1] and in data set [2] were 133 nM and 110 nM, respectively.

Regarding `FC(F)(F)Cn1cc2c(n1)CN(c1ccc3c(Oc4cn(C5CC5)nc4C4CCOCC4)ccnc3c1)C2` [Example 6, 4-((1-cyclopropyl-3-(tetrahydro-2H-pyran-4-yl)-1H-pyrazol-4-yl)oxy)-7-(2-(2,2,2-trifluoroethyl)-2,6-dihydropyrrolo[3,4-c]pyrazole-5(4H)-yl)quinoline], the results for the concentration for half-maximal inhibition (IC50) in data set [1] and in data set [2] were 165 nM and 66 nM, respectively.

With `Cn1cc(-c2ccc3c(Oc4cn(C5CC5)nc4C4CCOCC4)ccnc3c2)cn1` [Example 7, 4-((1-cyclopropyl-3-(tetrahydro-2H-pyran-4-yl)-1H-pyrazol-4-yl)oxy)-7-(1-methyl-1H-pyrazol-4-yl)quinoline], the concentration for half-maximal inhibition (IC50) in data set [1] was found to be 81 nM; in data set [2] it was 5.2 nM.

With `CS(=O)(=O)c1ccc(-c2ccc3c(Oc4cn(C5CC5)nc4C4CCOCC4)ccnc3c2)cc1` [Example 15, 4-((1-cyclopropyl-3-(tetrahydro-2H-pyran-4-yl)-1H-pyrazol-4-yl)oxy)-7-(4-(methylsulfonyl)phenyl) quinoline], the values for the IC50 in data set [1] and in data set [2] were 80 nM and 3.2 nM, respectively.

Turning to `CC(C)(O)c1cc(-c2ccc3c(Oc4cn(C5CC5)nc4C4CCOCC4)ccnc3c2)ccn1` [Example 16, 2-(4-(4-((1-cyclopropyl-3-(tetrahydro-2H-pyran-4-yl)-1H-pyrazol-4-yl)oxy)quinolin-7-yl)pyridin-2-yl)propan-2-ol], the IC50 stood at 200 nM in data set [1] and 100 nM in data set [2].

With `COc1cc2nccc(Oc3cn(C4CC4)nc3C3CCOCC3)c2cc1C(N)=O` [Example 17, 4-((1-cyclopropyl-3-(tetrahydro-2H-pyran-4-yl)-1H-pyrazol-4-yl)oxy)-7-methoxyquinoline-6-carboxamide], the IC50 came out at 131 nM in data set [1] and 66 nM in data set [2].

As to `COc1cc2nccc(Oc3cn(C4CC4)nc3C3CCOCC3)c2cc1Nc1cnn(C)c1` [Example 18, 4-((1-cyclopropyl-3-(tetrahydro-2H-pyran-4-yl)-1H-pyrazol-4-yl)oxy)-7-methoxy-N-(1-methyl-1H-pyrazol-4-yl)quinoline-6-amine], the IC50 worked out at 87 nM in data set [1] and 6 nM in data set [2].

For the molecule `COc1cc2nccc(Oc3cn(C4CC4)nc3C3CCOCC3)c2cc1Nc1cnn(C2COC2)c1` [Example 19, 4-((1-cyclopropyl-3-(tetrahydro-2H-pyran-4-yl)-1H-pyrazol-4-yl)oxa)-7-methoxy-N-(1-(oxetan-3-yl)-1H-pyrazol-4-yl)quinoline-6-amine], the IC50 in data set [1] is 203 nM; in data set [2], 10 nM.

Turning to `Cc1cccc(-c2nn3c(c2-c2ccnc4ccc(C(N)=O)cc24)CCC3)n1` [Galunisertib], the “cardiotoxicity (such as bleeding, functional deterioration, and inflammatory injury)” value in data set [3] is on record as “certain cardiotoxicity”.

The record behind these values is patent US20210395235A1, “COMPOUND AS TGF-beta R1 INHIBITOR AND APPLICATION THEREOF” (NANJING SANHOME PHARMACEUTICAL CO., LTD., priority 2018, published 2021).
